Data reported in US11583529B2, “Treatment of inflammatory disorders” (Aldeyra Therapeutics, Inc., priority 2017, dated 2023).

Columns and labels:
[1] = tested on: dextran sulfate sodium (DSS)-induced acute ulcerative colitis (UC); experiment: 7-Day DSS-induced acute ulcerative colitis model; format: in vivo, female Swiss Webster mice; settings: for Body weights: 200 mg/kg PO BID (Groups 5, 6, 7, 8, 9, and 10)
[2] = tested on: rat model of endotoxin induced uveitis; experiment: Rat model of endotoxin-induced uveitis (EIU), topical or intravitreal treatment; format: in vivo, female Lewis rats
Experimental: An in vivo study was conducted to assess the efficacy of intravitreal administration of compound I-22 in a rat model of endotoxin induced uveitis, one of the most appropriate models for the study of NIU (Smith et al., 1998) (Toxikon Study 16-04078-N1). Ocular inflammation was induced in female Lewis rats (n=10/group) by a single foot pad injection of LPS (100 μL) (Herbort et al., 1988, Graefe's Arch Clin Exp Ophthalmol. 226:553-558). Compound I-22 (5 mg/mL) was administered intravitreally into each eye (25 μg/eye), or topically to both eyes at 1, 3, 7, 10, and 17 hours post-LPS injection, within one hour of LPS administration. Balanced salt solution (BSS) served as a vehicle control. Retinal exams were performed prior to study start and six and 24 hours following LPS administration and scored using a Combined Draize and McDonald Shadduck scoring system, based on assessments of: retinal vasculopathy and retinal hemorrhage, exudate, and detachment.
Endotoxin-induced uveitis was created by a single injection of lipopolysaccharide (LPS; 100 μL) into one hind footpad. Ten (10) female Lewis rats per group received control (balanced salt solution, BSS) or test article (compound I-22) topically to both eyes at 1, 3, 7, 10, and 17 hours post-LPS injection. At each dosing time point, two drops (5 μL each, separated by approximately two minutes, for a total of 10 μL/eye/dose) were instilled into each eye of the animals. Ten female Lewis rats per group received control (BSS) or compound I-22 by a single intravitreal injection (IVT) in each eye at one hour post-LPS injection. Each eye received 5 μL of vehicle or test article.
Animals were anesthetized with isoflurane 1-3.5% for ophthalmic examinations. Both eyes of each animal were evaluated pre-dose using slit-lamp biomicroscopy, and an indirect ophthalmoscope or a surgical microscope, according to the Combined Draize and McDonald-Shadduck Scoring System, and the Ocular Posterior Segment Scoring Scale. All pupils were dilated with 1% tropicamide ophthalmic solution before ocular examination. Only rats showing no signs of eye irritation, ocular defects or preexisting corneal injury were used in the study.
Ophthalmic examinations were performed on both eyes of each animal approximately six and 24 hours following LPS administration, using slit-lamp biomicroscopy and a surgical microscope or via indirect ophthalmoscopy. Pupils were dilated with 1% Tropicamide Ophthalmic Solution before ophthalmic examinations.
Quantitative, continuous data from this study were analyzed using one-way ANOVA. Alternative or additional statistical methods were used as necessary.
In the same study, the efficacy of compound 1-5 was compared to that of compound 1-22. Compound 1-5 was topically administered topically to the eye at hours 1, 3, 7, 10, and 17, after LPS induction, or by a single intravitreal (IVT) injection one hour after LPS induction (n=10 per group), as was compound I-22. Ocular exams were performed 6 and 24 hours after LPS injection. Anterior segments were scored using a combined Draize and McDonald-Shadduck scoring system, and posterior segments were scored using 0 to 1 (vitreous, optic disc, retinal vasculature) and 0 to 4 (retinal and choroidal hemorrhage, exudation, and detachment) scales. Statistical significance from vehicle control was determined by ANOVA, followed by Tukey's post hoc test.

[3] = tested on: Dry Eye Disease (DED); experiment: Phase 2b clinical study of I-5 Ophthalmic Solution (0.25% and 0.1%) vs vehicle in subjects with dry eye disease; format: in vivo, human; settings: for Reason for Study Withdrawal: Adverse Events / Study Completion: Discontinued: N = 100
Source text: Objectives: • To evaluate the efficacy of I-5 Ophthalmic Solutions (0.25% and 0.1%) on baseline to weeks 2, 4, 8, and 12 change scores for sign and symptom endpoints of dry eye disease. • To evaluate effect sizes for efficacy endpoints of I-5 Ophthalmic Solutions (0.25% and 0.1%) vs vehicle for the treatment of the signs and symptoms of dry eye disease to confirm the endpoint selection and sample size for Phase 3 studies. • To evaluate the safety and tolerability of I-5 Ophthalmic Solutions (0.25% and 0.1%) to vehicle for the treatment of the signs and symptoms of dry eye disease.
Treatment: During the 12-week (84±3 days) treatment period, I-5 Ophthalmic Solution at concentrations of 0.1%, 0.25%, or vehicle ophthalmic solution was administered QID by bilateral topical ocular dosing. Subjects were randomized to one of three treatment groups (1:1:1) to receive study drug after the Post-CAE® assessments at Visit 2.
Summary of Visit Schedule: Six visits over the course of approximately 14 weeks • Visit 1=Day −14±2, CAE® Screening • Visit 2=Day 1, CAE® Confirmation/Baseline • Visit 3=Day 15±2, 2-Week Follow-Up • Visit 4=Day 29±2, 4-Week Follow-Up • Visit 5=Day 57±3, 8-Week Follow-Up • Visit 6=Day 85±3, 12-Week CAE® Follow-Up & Study Exit
Note: a subject could not have an Ocular Discomfort score of 4 at time=0); • 12 Had at least one eye, the same eye, satisfy all criteria for 6, 7, 8, 9, 10, and 11 above.
Safety Measures: • Visual acuity • Slit-lamp evaluation • Adverse event query • Intraocular Pressure (IOP) • Dilated fundoscopy
Efficacy Analysis • Evaluated baseline to weeks 2, 4, 8 and 12 change scores with I-5 on DED sign and symptom endpoints (both pre-CAE and CAE endpoints). Each endpoint was analyzed at a two-sided alpha level of 0.05, and the overall type I error was not controlled for in this investigative study. • Evaluated effect size of baseline to weeks 2, 4, 8 and 12 change scores of I-5 vs vehicle on DED sign and symptom endpoints (both pre-CAE and CAE endpoints) to confirm the endpoint selection for primary outcome parameters and sample size for Phase 3 studies with I-5. • Sub-group analyses on effect size of baseline to weeks 2, 4, 8 and 12 change scores of I-5 vs vehicle on DED sign and symptom endpoints (both pre-CAE and CAE endpoints) [Subgroups were prospectively detailed in the Statistical Analysis Plan (SAP)].

[4] = 100 mg/kg IP QD, Days 0 through 6, vs IP vehicle
[5] = 200 mg/kg PO BID, Days 0 through 6, vs PO vehicle
[6] = 200 mg/kg PO BID, Days −3 through 6, vs PO vehicle
[7] = intravitreal administration, vs vehicles
[8] = 0.25% group, majority (>50-100%) of effect vs vehicle at first study endpoint (Week 2 or 4)

Compound: CC(C)(O)c1nc2ccccc2cc1N [Compound I-6]
- Colon lengths, increase in the direction of normal [1, 4]: 56%
- Colon weight-to-length ratios, reduction in the direction of normal [1, 4]: 35%
- DAI score of occult/gross blood in stool, AUC [1, 4]: significantly lower
- DAI score of stool consistency, area under the curve (AUC) [1, 4]: significantly lower
- DAI summed scores, AUC [1, 4]: significantly lower
- full colon PMN percentages, reduction [1, 4]: 53%
- full colon edema, reduction [1, 4]: 53%
- full colon erosion, reduction [1, 4]: 91%
- full colon gland loss, reduction [1, 4]: 82%
- full colon inflammation, reduction [1, 4]: 56%
- full colon lymphoid aggregate counts, reduction [1, 4]: 113%
- full colon neutrophil scores, reduction [1, 4]: 73%
- full colon summed scores, reduction [1, 4]: 68%
- proximal colon gland loss, reduction [1, 4]: 57%
- proximal colon inflammation, reduction [1, 4]: 32%
- proximal colon lymphoid aggregate counts, reduction [1, 4]: 107%
- proximal colon summed scores, reduction [1, 4]: 36%
- Body weight loss ([1]; 100 mg/kg IP QD, Days 0 through 6, vs IP vehicle (SBECD)): significantly inhibited
- Body weights ([1]; vs PO vehicle): did not differ significantly
- full colon edema, reduction [1, 5]: 44%
- proximal colon edema, reduction [1, 5]: 48%
- proximal colon inflammation, reduction [1, 5]: 36%
- full colon edema, reduction [1, 6]: 58%
- proximal colon edema, reduction [1, 6]: 41%
- proximal colon erosion, reduction [1, 6]: 75%
- DAI stool consistency scores ([1]; Day 2, 100 mg/kg IP QD, Days 0 through 6, vs IP vehicle): significantly reduced
- DAI summed scores ([1]; Day 6, 100 mg/kg IP QD, Days 0 through 6, vs IP vehicle): significantly reduced
- DAI occult/gross blood in stool scores ([1]; Days 4 and 6, 100 mg/kg IP QD, Days 0 through 6, vs IP vehicle): significantly reduced

Compound: CC(C)(O)c1nc2ccc(Cl)cc2cc1N [Compound I-5]
- ocular exam scores ([2]; IVT, vs vehicle): significantly improved
- Total ocular inflammation [2, 7]: lower
- anterior chamber inflammation [2, 7]: lower
- retina-choroid inflammation [2, 7]: lower
- signs of inflammation in the rat EIU model ([2]; overall): reduced
- response in the EIU model ([2]; overall, I-22 compared with I-5): positive response
- ocular exam scores ([2]; topical (TO), 6 hours and 24 hours, vs vehicle): significantly improved
- Total ocular inflammation score ([2]; topical (TO), vs vehicle): lower
- anterior chamber inflammation score ([2]; topical (TO), vs vehicle): lower
- retina-choroid inflammation score ([2]; topical (TO), vs vehicle): lower
- Reason for Study Withdrawal: Adverse Events ([3]; 0.1% QID): 2 (2.0%)
- Study Completion: Discontinued ([3]; 0.1% QID): 3 (3.0%)
- effects at later time points ([3]; 0.1%, clearest with signs, especially ocular staining): Matched Higher Dose Effects at Later Time Points
- Reason for Study Withdrawal: Adverse Events ([3]; 0.25% QID): 10 (10.0%)
- Study Completion: Discontinued ([3]; 0.25% QID): 12 (12.0%)
- early onset of effect, sign endpoints (Lissamine green total score, fluorescein total score, tear osmolarity positive; TFBUT negative) [3, 8]: Positive early onset for 3 out of 4 sign endpoints
- early onset of effect, symptom endpoints (ODS, OD4SQ, OSDI positive; SANDE negative) [3, 8]: Positive early onset for 3 out of 4 symptom endpoints
- Fluorescein Staining: Central (0-4); Dose Trend? ([3]; ITT, observed data only): ✓
- Fluorescein Staining: Central (0-4); Drug Trend? ([3]; ITT, observed data only): ✓
- Fluorescein Staining: Conjunctival Sum Score (Nasal and Temporal) (0-8; Σ 2×); Dose Trend? ([3]; ITT, observed data only): ✓
- Fluorescein Staining: Conjunctival Sum Score (Nasal and Temporal) (0-8; Σ 2×); Drug Trend? ([3]; ITT, observed data only): ✓
- Fluorescein Staining: Corneal Sum Score (Inferior, Superior, and Central) (0-12; Σ 3×); Drug Trend? ([3]; ITT, observed data only): ✓
- Fluorescein Staining: Inferior (0-4); Drug Trend? ([3]; ITT, observed data only): ✓
- Fluorescein Staining: Nasal (0-4); Dose Trend? ([3]; ITT, observed data only): ✓
- Fluorescein Staining: Nasal (0-4); Drug Trend? ([3]; ITT, observed data only): ✓
- Fluorescein Staining: Temporal (0-4); Dose Trend? ([3]; ITT, observed data only): ✓
- Fluorescein Staining: Temporal (0-4); Drug Trend? ([3]; ITT, observed data only): ✓
- Fluorescein Staining: Total Score (all five regions) (0-20; Σ 5×); Drug Trend? ([3]; ITT, observed data only): ✓
- OD & 4-Symptom Questionnaire: Burning (0-5); Drug Trend? ([3]; ITT, observed data only): ✓
- OD & 4-Symptom Questionnaire: Dryness (0-5); Dose Trend? ([3]; ITT, observed data only): ✓
- OD & 4-Symptom Questionnaire: Dryness (0-5); Drug Trend? ([3]; ITT, observed data only): ✓
- OD & 4-Symptom Questionnaire: Grittiness (0-5); Dose Trend? ([3]; ITT, observed data only): ✓
- OD & 4-Symptom Questionnaire: Grittiness (0-5); Drug Trend? ([3]; ITT, observed data only): ✓
- OD & 4-Symptom Questionnaire: Overall Ocular Discomfort (0-5); Dose Trend? ([3]; ITT, observed data only): ✓
- OD & 4-Symptom Questionnaire: Overall Ocular Discomfort (0-5); Drug Trend? ([3]; ITT, observed data only): ✓
- OD & 4-Symptom Questionnaire: Stinging (0-5); Dose Trend? ([3]; ITT, observed data only): ✓
- OD & 4-Symptom Questionnaire: Stinging (0-5); Drug Trend? ([3]; ITT, observed data only): ✓
- Ocular Discomfort Scale (0-4); Dose Trend? ([3]; ITT, observed data only): ✓
- Ocular Discomfort Scale (0-4); Drug Trend? ([3]; ITT, observed data only): ✓
- Ocular Surface Disease Index (OSDI) (0-100); Dose Trend? ([3]; ITT, observed data only): ✓
- Ocular Surface Disease Index (OSDI) (0-100); Drug Trend? ([3]; ITT, observed data only): ✓
- Osmolarity (mOsm/L); Drug Trend? ([3]; ITT, observed data only): ✓
- SANDE Questionnaire Frequency (0-100 mm); Drug Trend? ([3]; ITT, observed data only): ✓
- SANDE Questionnaire Severity (0-100 mm); Dose Trend? ([3]; ITT, observed data only): ✓
- SANDE Questionnaire Severity (0-100 mm); Drug Trend? ([3]; ITT, observed data only): ✓
- Schirmer’s Test (mm); Dose Trend? ([3]; ITT, observed data only): ✓
- Schirmer’s Test (mm); Drug Trend? ([3]; ITT, observed data only): ✓
- Tear Film Break-up Time (sec); Dose Trend? ([3]; ITT, observed data only): ✓
- Usamine Green Staining: Central (0-4); Dose Trend? ([3]; ITT, observed data only): ✓
- Usamine Green Staining: Central (0-4); Drug Trend? ([3]; ITT, observed data only): ✓
- Usamine Green Staining: Conjunctival Sum Score (Nasal and Temporal) (0-8; Σ 2×); Dose Trend? ([3]; ITT, observed data only): ✓
- Usamine Green Staining: Conjunctival Sum Score (Nasal and Temporal) (0-8; Σ 2×); Drug Trend? ([3]; ITT, observed data only): ✓
- Usamine Green Staining: Corneal Sum Score (Inferior, Superior, and Central) (0-12; Σ 3×); Dose Trend? ([3]; ITT, observed data only): ✓
- Usamine Green Staining: Corneal Sum Score (Inferior, Superior, and Central) (0-12; Σ 3×); Drug Trend? ([3]; ITT, observed data only): ✓
- Usamine Green Staining: Inferior (0-4); Dose Trend? ([3]; ITT, observed data only): ✓
- Usamine Green Staining: Inferior (0-4); Drug Trend? ([3]; ITT, observed data only): ✓
- Usamine Green Staining: Nasal (0-4); Dose Trend? ([3]; ITT, observed data only): ✓
- Usamine Green Staining: Nasal (0-4); Drug Trend? ([3]; ITT, observed data only): ✓
- Usamine Green Staining: Superior (0-4); Dose Trend? ([3]; ITT, observed data only): ✓
- Usamine Green Staining: Temporal (0-4); Dose Trend? ([3]; ITT, observed data only): ✓
- Usamine Green Staining: Temporal (0-4); Drug Trend? ([3]; ITT, observed data only): ✓
- Usamine Green Staining: Total Score (all five regions) (0-20; Σ 5×); Dose Trend? ([3]; ITT, observed data only): ✓
- Usamine Green Staining: Total Score (all five regions) (0-20; Σ 5×); Drug Trend? ([3]; ITT, observed data only): ✓
- Dose Response ([3]; between 0.1% and 0.25% dose strengths): Demonstrated
- Body weights ([1]; vs PO vehicle): did not differ significantly
- proximal colon edema, reduction [1, 6]: 63%
- proximal colon erosion, reduction [1, 6]: 73%
